This note sets out measurements from patent US20230077362A1 (CORTEVA AGRISCIENCE LLC, priority 2019, published 2023).

The test system of assay [1] is Beet Armyworm (Spodoptera exigua) ("BAW"), second instar larvae. The experiment in a line: Bioassay on beet armyworm (BAW), 128-well diet tray assay. It counts as in vivo. The following applies: Spodoptera exigua, read-out: BAW rating. The gist of the method:
(§1)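 Second-instar larvae on diet in 128-well trays, covered and held at 25° C, 14:10 light-dark, for five to seven days. Percent mortality scored per well and averaged over eight wells; activity reported as a rating category.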

In assay [2] the test system is Cabbage Looper (Trichoplusia ni) ("CL"), second instar larvae. The experiment in a line: Bioassay on cabbage looper (CL), 128-well diet tray assay. The following applies: Trichoplusia ni, read-out: CL rating. It counts as in vivo. In outline:
as §1

As for `Cc1ccc(COCC(F)(F)F)c(N2C(=O)CS/C2=N\C(=O)Nc2ccc(-c3cn(-c4ccc(S(F)(F)(F)(F)F)cc4)cn3)cc2F)c1` [Compound J598, (Z)-1-(2-Fluoro-4-(1-(4-(pentafluoro-λ^6-sulfaneyl)phenyl)-1H-imidazol-4-yl)phenyl)-3-(3-(5-methyl-2-((2,2,2-trifluoroethoxy)methyl)phenyl)-4-oxothiazolidin-2-ylidene)urea], the pest or weed control at 50 µg/cm2 in assay [1] and in assay [2] was 50 to 100% throughout.

Turning to `COC(c1ccc(C)cc1N1C(=O)CS/C1=N\C(=O)Nc1ccc(-c2cn(-c3ccc(S(F)(F)(F)(F)F)cc3)cn2)cc1F)C(F)(F)F` (stereo not shown) [Compound J599, (Z)-1-(2-Fluoro-4-(1-(4-(pentafluoro-λ^6-sulfaneyl)phenyl)-1H-imidazol-4-yl)phenyl)-3-(3-(5-methyl-2-(2,2,2-trifluoro-1-methoxyethyl)phenyl)-4-oxothiazolidin-2-ylidene)urea], the pest or weed control at 50 µg/cm2 in assay [1] and in assay [2] was 50 to 100% in each case.

As to `CN(C)c1ccc(C(F)(F)F)c(N2C(=O)CS/C2=N\C(=O)Nc2ccc(-c3cn(-c4ccc(S(F)(F)(F)(F)F)cc4)cn3)cc2F)c1` [Compound J600, (Z)-1-(3-(5-(Dimethylamino)-2-(trifluoromethyl)phenyl)-4-oxothiazolidin-2-ylidene)-3-(2-fluoro-4-(1-(4-(pentafluoro-λ^6-sulfaneyl)phenyl)-1H-imidazol-4-yl)phenyl)urea], the pest or weed control at 50 µg/cm2 in assay [1] and in assay [2] was 50 to 100% throughout.

In the case of `COCc1ccc(N(C)C)cc1N1C(=O)CS/C1=N\C(=O)Nc1ccc(-c2cn(-c3ccc(S(F)(F)(F)(F)F)cc3)cn2)cc1F` [Compound J601, (Z)-1-(3-(5-(Dimethylamino)-2-(methoxymethyl)phenyl)-4-oxothiazolidin-2-ylidene)-3-(2-fluoro-4-(1-(4-(pentafluoro-λ^6-sulfaneyl)phenyl)-1H-imidazol-4-yl)phenyl)urea], the pest or weed control at 50 µg/cm2 in assay [1] and in assay [2] was 50 to 100% in each case.

For the compound `CCCc1ccc(N(C)C)cc1N1C(=O)CS/C1=N\C(=O)Nc1ccc(-c2cn(-c3ccc(S(F)(F)(F)(F)F)cc3)cn2)cc1F` [Compound J602, (Z)-1-(3-(5-(Dimethylamino)-2-propylphenyl)-4-oxothiazolidin-2-ylidene)-3-(2-fluoro-4-(1-(4-(pentafluoro-λ^6-sulfaneyl)phenyl)-1H-imidazol-4-yl)phenyl)urea], the pest or weed control at 50 µg/cm2 in assay [1] and in assay [2] was 50 to 100% in each case.

For `CC(C)c1ccc(N(C)C)cc1N1C(=O)CS/C1=N\C(=O)Nc1ccc(-c2cn(-c3ccc(S(F)(F)(F)(F)F)cc3)cn2)cc1F` [Compound J603, (Z)-1-(3-(5-(Dimethylamino)-2-isopropylphenyl)-4-oxothiazolidin-2-ylidene)-3-(2-fluoro-4-(1-(4-(pentafluoro-λ^6-sulfaneyl)phenyl)-1H-imidazol-4-yl)phenyl)urea], the pest or weed control at 50 µg/cm2 in assay [1] and in assay [2] was 50 to 100% each time.

In the case of `CC(C)c1cc(F)c(N(C)C)cc1N1C(=O)CS/C1=N\C(=O)Nc1ccc(-c2cn(-c3ccc(S(F)(F)(F)(F)F)cc3)cn2)cc1F` [Compound J604, (Z)-1-(3-(5-(Dimethylamino)-4-fluoro-2-isopropylphenyl)-4-oxothiazolidin-2-ylidene)-3-(2-fluoro-4-(1-(4-(pentafluoro-λ^6-sulfaneyl)phenyl)-1H-imidazol-4-yl)phenyl)urea], the pest or weed control at 50 µg/cm2 in assay [1] and in assay [2] was 50 to 100% in each case.

As for `CC(C)c1ccc(C#N)cc1N1C(=O)CS/C1=N\C(=O)Nc1ccc(-c2cn(-c3ccc(S(F)(F)(F)(F)F)cc3)cn2)cc1F` [Compound J605, (Z)-1-(3-(5-Cyano-2-isopropylphenyl)-4-oxothiazolidin-2-ylidene)-3-(2-fluoro-4-(1-(4-(pentafluoro-λ^6-sulfaneyl)phenyl)-1H-imidazol-4-yl)phenyl)urea], the pest or weed control at 50 µg/cm2 in assay [1] and in assay [2] was 50 to 100% throughout.

Turning to `COC(C)c1ccc(C#N)cc1N1C(=O)CS/C1=N\C(=O)Nc1ccc(-c2cn(-c3ccc(S(F)(F)(F)(F)F)cc3)cn2)cc1F` (stereo not shown) [Compound J606, (Z)-1-(3-(5-Cyano-2-(1-methoxyethyl)phenyl)-4-oxothiazolidin-2-ylidene)-3-(2-fluoro-4-(1-(4-(pentafluoro-λ^6-sulfaneyl)phenyl)-1H-imidazol-4-yl)phenyl)urea], the pest or weed control at 50 µg/cm2 in assay [1] and in assay [2] was 50 to 100% throughout.

Regarding `Cc1ccc(C(C)C)c(N2C(=O)CS/C2=N\C(=O)Nc2ccc(-c3nnc(-c4ccc(OC(F)(F)F)cc4)o3)cc2F)c1` [Compound J607, (Z)-1-(2-fluoro-4-(5-(4-(trifluoromethoxy)phenyl)-1,3,4-oxadiazol-2-yl)phenyl)-3-(3-(2-isopropyl-5-methylphenyl)-4-oxothiazolidin-2-ylidene)urea], the pest or weed control at 50 µg/cm2 in assay [1] and in assay [2] was 50 to 100% throughout.

Turning to `CCCc1ccc(C)cc1N1C(=O)CS/C1=N\C(=O)Nc1ccc(-c2nnc(-c3ccc(OC(F)(F)F)cc3)o2)cc1F` [Compound J608, (Z)-1-(2-Fluoro-4-(5-(4-(trifluoromethoxy)phenyl)-1,3,4-oxadiazol-2-yl)phenyl)-3-(3-(5-methyl-2-propylphenyl)-4-oxothiazolidin-2-ylidene)urea], the pest or weed control at 50 µg/cm2 in assay [1] and in assay [2] was 50 to 100% each time.

Take `COCc1ccc(C)cc1N1C(=O)CS/C1=N\C(=O)Nc1ccc(-c2nnc(-c3ccc(OC(F)(F)F)cc3)o2)cc1F` [Compound J609, (Z)-1-(2-Fluoro-4-(5-(4-(trifluoromethoxy)phenyl)-1,3,4-oxadiazol-2-yl)phenyl)-3-(3-(2-(methoxymethyl)-5-methylphenyl)-4-oxothiazolidin-2-ylidene)urea]: the pest or weed control at 50 µg/cm2 in assay [1] and in assay [2] was 50 to 100% throughout.

Regarding `CCOCc1ccc(C)cc1N1C(=O)CS/C1=N\C(=O)Nc1ccc(-c2nnc(-c3ccc(OC(F)(F)F)cc3)o2)cc1F` [Compound J610, (Z)-1-(3-(2-(Ethoxymethyl)-5-methylphenyl)-4-oxothiazolidin-2-ylidene)-3-(2-fluoro-4-(5-(4-(trifluoromethoxy)phenyl)-1,3,4-oxadiazol-2-yl)phenyl)urea], the pest or weed control at 50 µg/cm2 in assay [1] and in assay [2] was 50 to 100% each time.

For `CN(C)c1ccc(C(F)(F)F)c(N2C(=O)CS/C2=N\C(=O)Nc2ccc(-c3nnc(-c4ccc(OC(F)(F)F)cc4)o3)cc2F)c1` [Compound J611, (Z)-1-(3-(5-(Dimethylamino)-2-(trifluoromethyl)phenyl)-4-oxothiazolidin-2-ylidene)-3-(2-fluoro-4-(5-(4-(trifluoromethoxy)phenyl)-1,3,4-oxadiazol-2-yl)phenyl)urea], the pest or weed control at 50 µg/cm2 in assay [1] and in assay [2] was 50 to 100% in each case.

As for `COCc1ccc(N(C)C)cc1N1C(=O)CS/C1=N\C(=O)Nc1ccc(-c2nnc(-c3ccc(OC(F)(F)F)cc3)o2)cc1F` [Compound J612, (Z)-1-(3-(5-(Dimethylamino)-2-(methoxymethyl)phenyl)-4-oxothiazolidin-2-ylidene)-3-(2-fluoro-4-(5-(4-(trifluoromethoxy)phenyl)-1,3,4-oxadiazol-2-yl)phenyl)urea], the pest or weed control at 50 µg/cm2 in assay [1] and in assay [2] was 50 to 100% in each case.

On to `Cc1ccc(C(C)C)c(N2C(=O)CS/C2=N\C(=O)Nc2ccc(-c3cn(-c4ccc(S(F)(F)(F)(F)F)cc4)cn3)cc2C)c1` [Compound J613, (Z)-1-(3-(2-Isopropyl-5-methylphenyl)-4-oxothiazolidin-2-ylidene)-3-(2-methyl-4-(1-(4-(pentafluoro-λ^6-sulfaneyl)phenyl)-1H-imidazol-4-yl)phenyl)urea], for which the pest or weed control at 50 µg/cm2 in assay [1] and in assay [2] was 50 to 100% each time.

With `COC(C)c1ccc(C)cc1N1C(=O)CS/C1=N\C(=O)Nc1ccc(-c2cn(-c3ccc(S(F)(F)(F)(F)F)cc3)cn2)cc1C` (stereo not shown) [Compound J614, (Z)-1-(3-(2-(1-Methoxyethyl)-5-methylphenyl)-4-oxothiazolidin-2-ylidene)-3-(2-methyl-4-(1-(4-(pentafluoro-λ^6-sulfaneyl)phenyl)-1H-imidazol-4-yl)phenyl)urea], the pest or weed control at 50 µg/cm2 in assay [1] and in assay [2] was 50 to 100% throughout.

`CCOCc1ccc(C)cc1N1C(=O)CS/C1=N\C(=O)Nc1ccc(-c2cn(-c3ccc(S(F)(F)(F)(F)F)cc3)cn2)cc1C` [Compound J615, (Z)-1-(3-(2-(Ethoxymethyl)-5-methylphenyl)-4-oxothiazolidin-2-ylidene)-3-(2-methyl-4-(1-(4-(pentafluoro-λ^6-sulfaneyl)phenyl)-1H-imidazol-4-yl)phenyl)urea]: the pest or weed control at 50 µg/cm2 in assay [1] and in assay [2] was 50 to 100% each time.

For the compound `Cc1ccc(COCC(F)(F)F)c(N2C(=O)CS/C2=N\C(=O)Nc2ccc(-c3cn(-c4ccc(S(F)(F)(F)(F)F)cc4)cn3)cc2C)c1` [Compound J616, (Z)-1-(3-(5-Methyl-2-((2,2,2-trifluoroethoxy)methyl)phenyl)-4-oxothiazolidin-2-ylidene)-3-(2-methyl-4-(1-(4-(pentafluoro-λ^6-sulfaneyl)phenyl)-1H-imidazol-4-yl)phenyl)urea], the pest or weed control at 50 µg/cm2 in assay [1] and in assay [2] was 50 to 100% throughout.

Take `COC(c1ccc(C)cc1N1C(=O)CS/C1=N\C(=O)Nc1ccc(-c2cn(-c3ccc(S(F)(F)(F)(F)F)cc3)cn2)cc1C)C(F)(F)F` (stereo not shown) [Compound J617, (Z)-1-(3-(5-Methyl-2-(2,2,2-trifluoro-1-methoxyethyl)phenyl)-4-oxothiazolidin-2-ylidene)-3-(2-methyl-4-(1-(4-(pentafluoro-λ^6-sulfaneyl)phenyl)-1H-imidazol-4-yl)phenyl)urea]: the pest or weed control at 50 µg/cm2 in assay [1] and in assay [2] was 50 to 100% throughout.
